Assay results published in patent US20200270309A1, “MALEIMIDE GROUP-MODIFIED ANGIOGENESIS INHIBITOR HM-1 AND USE THEREOF” (NANJING ANJI BIOLOGICAL TECHNOLOGY CO., LTD, priority 2017, published 2020).
Read-outs that look alike come from different tables or passages of the source. Peptide text beside a SMILES is read from it. * marks the point of attachment. Butanoyl(4-maleimido) = O=C1C=CC(=O)N1CCCC(=O)*; Propanoyl(3-maleimido) = O=C1C=CC(=O)N1CCC(=O)*; X11 = O=C1C=CC(=O)N1CCOCCOCCOCCOCCOCCCCCC(=O)*; X5 = O=C1C=CC(=O)N1CCOCCOCCOCCOCCOCCOCC(=O)*; X10 = O=C1C=CC(=O)N1CCOCCOCCOCCOCCCC(=O)*; X17 = O=C1C=CC(=O)N1CCOCCOCCCCCCCC(=O)*; X78 = O=C1C=CC(=O)N1c1ccc(CCCC(=O)*)cc1; X48 = O=C1C=CC(=O)N1CCCCCCCCCCCC(=O)*; X67 = O=C1C=CC(=O)N1CCCCCCCCCC(=O)*

Experiment: Half-lives and pharmacokinetic parameters of polypeptides vs HM-1
Design: AUC0-∞: concentration or dose not given beside the values
Conditions: in vivo
[1] = read-out: T1/2β (half-life) (converted)

| Structure (SMILES) | AUC0-∞ | half-life [1] | AUC(0-inf) | MRT inf | clearance | half-life (T1/2β (half-life)) | AUC(0-inf) (read-out: AUC0-∞) | clearance (read-out: CL (converted)) | MRT inf (read-out: MRT0-∞) |
| --- | --- | --- | --- | --- | --- | --- | --- | --- | --- |
| CSCC[C@H](NC(=O)[C@H](Cc1c[nH]cn1)NC(=O)[C@H](CCC(N)=O)NC(=O)[C@H](CCCNC(=N)N)NC(=O)CCN1C(=O)C=CC1=O)C(=O)N[C@@H](Cc1ccccc1)C(=O)N[C@@H](CO)C(=O)N[C@@H](Cc1c[nH]c2ccccc12)C(=O)N[C@H](C(=O)N[C@@H](CC(C)C)C(=O)N[C@@H](C)C(=O)N[C@@H](CCCNC(=N)N)C(=O)N[C@@H](CC(N)=O)C(=O)N[C@@H](CC(=O)O)C(=O)N[C@@H](CCC(N)=O)C(=O)N[C@@H](CCC(=O)O)C(=O)N[C@@H](CCC(=O)O)C(=O)N[C@@H](CCCNC(=N)N)C(=O)NCC(=O)N[C@@H](CC(=O)O)C(=O)O)C(C)C [P1] ({Propanoyl(3-maleimido)}-RQHMFSWVLARNDQEERGD-OH; C-terminus assumed) | 0.0336 ± 0.0083 mg/L/h | 36.96 ± 0.25 h |  |  |  |  |  |  |  |
| C[C@H](NC(=O)CNC(=O)[C@H](CCCNC(=N)N)NC(=O)CCCCCCCOCCOCCN1C(=O)C=CC1=O)C(=O)N[C@@H](CC(=O)O)C(=O)N[C@@H](CCCNC(=N)N)C(=O)N[C@@H](C)C(=O)NCC(=O)NCC(=O)NCC(=O)NCC(=O)N[C@@H](CCCNC(=N)N)C(=O)NCC(=O)N[C@@H](CC(=O)O)C(=O)O [X62] (X17-RGADRAGGGGRGD-OH) |  |  | 26700 ± 8160 ng·h/mL | 47.8 ± 12.3 h | 0.625 mL/min/kg | 33.09 ± 0.28 h |  |  |  |
| C[C@H](NC(=O)CNC(=O)[C@H](CCCNC(=N)N)NC(=O)CCCCCCCCCCCN1C(=O)C=CC1=O)C(=O)N[C@@H](CC(=O)O)C(=O)N[C@@H](CCCNC(=N)N)C(=O)N[C@@H](C)C(=O)NCC(=O)NCC(=O)NCC(=O)NCC(=O)N[C@@H](CCCNC(=N)N)C(=O)NCC(=O)N[C@@H](CC(=O)O)C(=O)O [X11] (X48-RGADRAGGGGRGD-OH) |  |  | 25100 ± 8260 ng·h/mL | 44.9 ± 11.6 h | 0.665 mL/min/kg | 31.08 ± 0.29 h |  |  |  |
| C[C@H](NC(=O)CNC(=O)[C@H](CCCNC(=N)N)NC(=O)CCCCCCCCCN1C(=O)C=CC1=O)C(=O)N[C@@H](CC(=O)O)C(=O)N[C@@H](CCCNC(=N)N)C(=O)N[C@@H](C)C(=O)NCC(=O)NCC(=O)NCC(=O)NCC(=O)N[C@@H](CCCNC(=N)N)C(=O)NCC(=O)N[C@@H](CC(=O)O)C(=O)O [X9] (X67-RGADRAGGGGRGD-OH) |  |  | 31200 ± 7350 ng·h/mL | 56 ± 13.3 h | 0.537 mL/min/kg | 38.78 ± 0.31 h |  |  |  |
| C[C@H](NC(=O)CNC(=O)[C@H](CCCNC(=N)N)NC(=O)CCCc1ccc(N2C(=O)C=CC2=O)cc1)C(=O)N[C@@H](CC(=O)O)C(=O)N[C@@H](CCCNC(=N)N)C(=O)N[C@@H](C)C(=O)NCC(=O)NCC(=O)NCC(=O)NCC(=O)N[C@@H](CCCNC(=N)N)C(=O)NCC(=O)N[C@@H](CC(=O)O)C(=O)O [X39] (X78-RGADRAGGGGRGD-OH) |  |  | 32800 ± 7110 ng·h/mL | 58.8 ± 13.1 h | 0.508 mL/min/kg | 40.73 ± 0.28 h |  |  |  |
| C[C@H](NC(=O)CNC(=O)[C@H](CCCNC(=N)N)NC(=O)CCCN1C(=O)C=CC1=O)C(=O)N[C@@H](CC(=O)O)C(=O)N[C@@H](CCCNC(=N)N)C(=O)N[C@@H](C)C(=O)NCC(=O)NCC(=O)NCC(=O)NCC(=O)N[C@@H](CCCNC(=N)N)C(=O)NCC(=O)N[C@@H](CC(=O)O)C(=O)O [X3] ({Butanoyl(4-maleimido)}-RGADRAGGGGRGD-OH) |  | 41.92 ± 0.32 h |  |  |  |  | 33800 ± 7660 ng·h/mL | 0.493 mL/min/kg | 60.5 ± 13.2 h |

Now from value to compound:

| AUC0-∞ | half-life [1] | AUC(0-inf) | MRT inf | clearance | half-life (T1/2β (half-life)) | AUC(0-inf) (read-out: AUC0-∞) | clearance (read-out: CL (converted)) | MRT inf (read-out: MRT0-∞) | Structure (SMILES) |
| --- | --- | --- | --- | --- | --- | --- | --- | --- | --- |
|  |  | 30700 ± 8170 ng·h/mL | 54.9 ± 11.5 h | 0.543 mL/min/kg | 38.06 ± 0.28 h |  |  |  | C[C@H](NC(=O)CNC(=O)[C@H](CCCNC(=N)N)NC(=O)CCCCCOCCOCCOCCOCCOCCN1C(=O)C=CC1=O)C(=O)N[C@@H](CC(=O)O)C(=O)N[C@@H](CCCNC(=N)N)C(=O)N[C@@H](C)C(=O)NCC(=O)NCC(=O)NCC(=O)NCC(=O)N[C@@H](CCCNC(=N)N)C(=O)NCC(=O)N[C@@H](CC(=O)O)C(=O)O [X81] (X11-RGADRAGGGGRGD-OH) |
|  |  | 33800 ± 7140 ng·h/mL | 60.5 ± 12.3 h | 0.493 mL/min/kg | 41.92 ± 0.29 h |  |  |  | C[C@H](NC(=O)CNC(=O)[C@H](CCCNC(=N)N)NC(=O)CCCOCCOCCOCCOCCN1C(=O)C=CC1=O)C(=O)N[C@@H](CC(=O)O)C(=O)N[C@@H](CCCNC(=N)N)C(=O)N[C@@H](C)C(=O)NCC(=O)NCC(=O)NCC(=O)NCC(=O)N[C@@H](CCCNC(=N)N)C(=O)NCC(=O)N[C@@H](CC(=O)O)C(=O)O [X72] (X10-RGADRAGGGGRGD-OH) |
|  |  | 29100 ± 8230 ng·h/mL | 52.1 ± 10.3 h | 0.573 mL/min/kg | 36.09 ± 0.28 h |  |  |  | C[C@H](NC(=O)CNC(=O)[C@H](CCCNC(=N)N)NC(=O)COCCOCCOCCOCCOCCOCCN1C(=O)C=CC1=O)C(=O)N[C@@H](CC(=O)O)C(=O)N[C@@H](CCCNC(=N)N)C(=O)N[C@@H](C)C(=O)NCC(=O)NCC(=O)NCC(=O)NCC(=O)N[C@@H](CCCNC(=N)N)C(=O)NCC(=O)N[C@@H](CC(=O)O)C(=O)O [X84] (X5-RGADRAGGGGRGD-OH) |
